# Values of other authors, collected in US20150150814A1, “STABLE ORAL PHARMACEUTICAL COMPOSITION OF SOLIFENACIN” (RANBAXY LABORATORIES LIMITED, priority 2013, published 2015).
# Details: water at room temperature
smiles,measurement,value
"O=C(O[C@H]1CN2CCC1CC2)N1CCc2ccccc2[C@@H]1c1ccccc1 [Solifenacin succinate, (1S)-(3R)-1-azabicyclo [2.2.2] oct-3-yl3,4-dihydro-1-phenyl-2(1H)iso-quinolinecarboxylate]",solubility in water,freely soluble
